Molecules are shown by their SMILES. Read-outs that look alike come from different tables or passages of the source.

In data set [1] the test system is L. donovani promastigotes. As to the kind of experiment: Growth inhibition of L. donovani promastigotes (resazurin-based assay). Type of data set: cell-based, Leishmania donovani. The conditions noted are these: Leishmania donovani, 72 h, incubation 3 days; for inhibition at 25 µM / inhibition at 50 µM: relative to control; for inhibition at 25 µM: read-out: % Inhibition at 25 µM concentration; for inhibition at 50 µM: read-out: % Inhibition at 50 µM concentration; for IC50: extracellular promastigotes, duplicates, read-out: IC50 ± SD, growth of L. donovani promastigotes. On the procedure:
Out of 20 known Leishmania species pathogenic to humans, L. donovani, which causes visceral leishmaniasis, is the most fatal. Consequently, an in vitro model of L. donovani promastigotes[26] was selected to evaluate the activity of the synthesised pyrrolidine-based 3-deoxysphingosylphosphorylcholine analogs 1e–i, 2a–f, 3a–f at two concentration (50 and 25 µM) employing miltefosine and erufosine (ErPC; erucylphosphocholine) as reference standards using a resazurin-based assay.
For comparison, erufosine and miltefosine were used as reference standards.
L. donovani MHOM/SD/62/1S-CL2D parasites were cultured as promastigotes at 28 °C in M199 medium (Sigma-Aldrich, St. Louis, MO, USA) with 40 mM HEPES, 0.1 mM adenine, 0.0001% biotin, and 4.62 mM NaHCO3 supplemented with 10% foetal bovine serum (FBS, Gibco, Carlsbad, CA, USA), […] penicillin (Gibco), and 100 µg/mL streptomycin (Gibco). Parasites were sub-cultured every 3 or 4 days and maintained for 10 passages.
The plates were analysed using a Victor3TM plate reader (PerkinElmer, Inc., Waltham, MA, USA) at 590 nm (emission) and 530 nm (excitation). Miltefosine and erufosine were used as the reference standards. All measured and calculated values are the averages of duplicates. The dose-response curves were generated by GraphPad Prism 6 software using a sigmoidal dose-response equation with a variable hill slope option.
Background: Alamar Blue is a resazurin reagent that responds to reducing activity.

In data set [2] the test system is L. donovani promastigotes. The arrangement: method as in PMID 22506086. The conditions noted are these: literature value; read-out: Reported IC50 against L. donovani promastigotes; cited from earlier work.
A short description of data set [3]: Cytotoxicity against HEK293T cells (resazurin). It counts as cell-based. The conditions noted are these: human, duplicates, read-out: HEK293T CC50 ± SD. From the text:
As the extracellular promastigotes form represents the insect stage of the parasite, assessment of activity is needed to confirm activity against the intracellular amastigotes form, which is the human host form (mammalian host form). In addition, a preliminary assessment of selectivity and safety might be desirable to evaluate the quality of hit compounds. Accordingly, compound 1e and its enantiomer; 1a, in parallel with standard drugs miltefosine and erufosine were submitted for evaluation in intracellular amastigotes model using infected THP-1 cells; human monocytic cell line derived from an acute monocytic leukaemia. In addition, cytotoxicity of tested compounds and standards were evaluated against THP-1 cells and normal human embryonic kidney cells; HEK293T to evaluate selectivity and safety. Cytotoxicity against HEK293T cell growth was assayed by measuring the conversion of resazurin to resorufin. The assays were performed in 384-well plates that were seeded with HEK293T cells (1000 cells per well). After seeding, the cells were exposed to the compounds for 3 days. Resazurin sodium salt (200 µM; R7017; Sigma-Aldrich, St. Louis, MO, USA) was then added, and the samples were incubated for 5 h. After incubation, the […] were fixed using 4% paraformaldehyde, and the plates were analysed using a Victor3TM plate reader (PerkinElmer, Inc., Waltham, MA, USA) at 590 nm (emission) and 530 nm (excitation). Miltefosine and saponin were used as the reference drugs for the HEK293T growth inhibition.

A short description of data set [4]: Cytotoxicity against THP-1 host cells. Type of data set: cell-based, human. The settings on record: human, PMA-treated THP-1 monocytic cells infected with the parasite; THP-1 cells, duplicates; read-out: THP-1 cell CC50 ± SD. The text has this: (§1) As the extracellular promastigotes form represents the insect stage of the parasite, assessment of activity is needed to confirm activity against the intracellular amastigotes form, which is the human host form (mammalian host form). In addition, a preliminary assessment of selectivity and safety might be desirable to evaluate the quality of hit compounds. Accordingly, compound 1e and its enantiomer; 1a, in parallel with standard drugs miltefosine and erufosine were submitted for evaluation in intracellular amastigotes model using infected THP-1 cells; human monocytic cell line derived from an acute monocytic leukaemia. In addition, cytotoxicity of tested compounds and standards were evaluated against THP-1 cells and normal human embryonic kidney cells; HEK293T to evaluate selectivity and safety. PMA-treated THP-1 human monocytic cells were seeded at 0.8 × 10^4 cells per well in a 384-well culture plate (Greiner Bio-One, Kremsmünster, Austria) in RPMI-1640 complete medium supplemented with 10% FBS. After 48 h of incubation at 37 °C in the presence of 5% CO2, infected THP-1 cells were treated with miltefosine (at 80 µM, positive control), and tested compounds (at 200 µM). The negative control consisted of THP-1 infected with the parasite with only 0.5% DMSO. After 72 h, the cells that were infected and treated with the drug were washed with serum-free RPMI-1640 medium. The cells and parasites were stained using 5 µM DAPI and 4% PFA. The images were acquired based on reading using an Operetta® automated microscope (PerkinElmer, Inc., Waltham, MA 02451, USA). They were further analysed using Columbus^TM (PerkinElmer, Inc. Waltham, MA, USA) software to quantify parasite numbers, and host cell numbers. In brief, large-sized nucleus of host cells was first detected using DAPI signal and the host cell boundary masking was performed using the low-intensity signals from cytosols. Then the small-sized nucleus signal by DAPI was used to identify parasites within the area of the masked host cell. The DRC results were further assessed in a dose-dilution manner (two-fold serial dilution for 10 points starting from 200 µM).

For data set [5], the system named is THP-1 cells. The experiment in a line: Cytotoxicity against THP-1 host cells. Type of data set: cell-based, human. The settings on record: CC50 THP-1 divided by IC50 intracellular L. donovani.
Text: as §1

Data set [6] concerns intracellular L. donovani amastigotes. The experiment in a line: Intracellular L. donovani amastigotes in infected THP-1 cells (image-based). Type of data set: cell-based. The conditions noted are these: Leishmania donovani, 72 h, duplicates, read-out: Intracellular L. donovani IC50 ± SD.
Text: as §1

In data set [7] the test system is L. major promastigotes. More on the design: method as in PMID 21267500. The settings on record: cited from earlier work.

The IC50 is the concentration at which inhibition is half-maximal. The CC50 is the concentration giving 50% cytotoxicity. With `CCCCCCCC/C=C\CCCCCCCCCCCCOP(=O)([O-])OCC[N+](C)(C)C` [Erufosine, erucylphosphocholine, reference compound], in data set [1], the inhibition at 25 µM came out at 106%, the inhibition at 50 µM is 108% and the IC50 is 9.75 ± 2.41 µM. For the same compound, the IC50 in data set [2] was 13.3 µM. The CC50 at 3 days in data set [3] turned out to be 40.8 ± 3.36 µM. In data set [4], the half-maximal cytotoxic concentration (CC50) at 72 h was 3.94 ± 1.02 µM. In addition, the Selectivity index in data set [5] was determined as 1.1. Besides, the IC50 in data set [6] was 3.61 ± 1.05 µM.

Take `CCCCCCCCCCCCCCCCOP(=O)([O-])OCC[N+](C)(C)C` [Miltefosine, miltefosine, reference compound]: the inhibition at 25 µM in data set [1] worked out at 100%. Also, the inhibition at 50 µM in data set [1] is 100%. Further, the IC50 is 4.94 ± 0.47 µM in data set [1], 3.1 µM in data set [2] and 2.55 ± 0.63 µM in data set [6]. Also, the CC50 at 3 days in data set [3] is greater than 200 µM. In addition, the CC50 at 72 h in data set [4] amounted to 40.8 ± 3.32 µM. In data set [5], this compound registered a Selectivity index of 16.0.

`CCCCCCCCCCCCC/C=C/C[C@@H](N)CO` [Compound 26an]: the “Cytotoxicity against L. major promastigotes (in words)” value in data set [7] was “significant cytotoxicity”.

The values are drawn from article PMC8386730, “Pyrrolidine-based 3-deoxysphingosylphosphorylcholine analogs as possible candidates against neglected tropical diseases (NTDs): identification of hit compounds towards development of potential treatment of Leishmania donovani” (Journal of Enzyme Inhibition and Medicinal Chemistry, 2021).
